Experimental data: article PMC8648660, “Multifunctional thiosemicarbazones targeting sigma receptors: in vitro and in vivo antitumor activities in pancreatic cancer models” (Cellular Oncology, 2021)

How the values were obtained:
sigma-1 receptors = target: T1, sigma-1 receptors (Homo sapiens, UniProt Q99720); assay: Flow cytometry displacement of sigma-1 fluorescent ligand LM1 in human pancreatic cancer cells; format: binding
T1 construct: endogenous in cells; host or cells: PANC-1, MiaPaCa2 (whole cells)
T1 sequence (Q99720 whole entry): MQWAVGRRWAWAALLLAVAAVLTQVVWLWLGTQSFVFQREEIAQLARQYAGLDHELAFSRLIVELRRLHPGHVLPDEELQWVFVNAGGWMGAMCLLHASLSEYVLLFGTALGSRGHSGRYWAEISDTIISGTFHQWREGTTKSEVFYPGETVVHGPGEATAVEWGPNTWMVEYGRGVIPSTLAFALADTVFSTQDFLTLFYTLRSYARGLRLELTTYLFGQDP
Procedure: (10 µM) was co-incubated. At the end of the incubation periods, the cells were washed twice with PBS, detached with […] Cell Dissociation Solution (Sigma Chemical Co.) for 10 min at 37 °C, centrifuged at 13,000 g for 5 min and resuspended in 500 µl PBS. Fluorescence was recorded using a Bio-Guava® easyCyte™ 5 Flow Cytometry System (Millipore, Billerica, MA, USA), equipped with a 530 nm band pass filter. For each analysis, 50,000 events were collected and analyzed using InCyte software (Millipore).

caspase 7 = assay: Caspase 7 activity assay in pancreatic cancer cells; format: cell-based, human and murine; conditions: 50 µM, 2 h
Procedure: (§1) Caspase 3, caspase 7 and caspase 9 activation was measured using a Caspase 3/7 Fluorescence Assay kit (Cayman Chemical, Ann Arbor, MI, USA) and a Caspase 9 fluorometric assay kit (Enzo Life Science, Roma, Italy). The results are expressed as nmol of the hydrolyzed substrate of each caspase/mg cellular proteins, according to a previously set titration curve.

[1] = test system: human (MiaPaCa2, PANC-1, AsPC1, BxPC3) and murine (KP02, PANC02) pancreatic cancer cells; assay: Cell viability MTT assay 48 h, panel of pancreatic cancer cell lines; format: cell-based; conditions: range over six pancreatic cancer cell lines; read-out: EC50 cytotoxic activity in all the cell lines studied
Procedure: Cell viability was assessed using a MTT assay at 48 h. On day 1, 25,000 cells/well were seeded into 96-well plates in 100 µl culture medium. On day 2, drugs at concentrations ranging from 1 µM to 100 µM were added. In all experiments the drug-solvents (EtOH, DMSO) were added as controls to evaluate possible solvent cyto-toxicities. After the established incubation time with drugs (48 h), MTT (0.5 mg/ml) was added to each well, and after 3–4 h incubation at 37 °C, the supernatants were removed. The formazan crystals formed were solubilized using 100 µl DMSO/EtOH (1:1) after which the absorbance values at 570 and 630 nm were determined using a microplate reader Victor 3 from PerkinElmer Life Sciences.

mitochondrial ROS = assay: Mitochondrial ROS measurement (MitoSOX); format: cell-based, human and murine; conditions: 50 µM, 2 h
Procedure: Intra-mitochondrial ROS was measured using fluorescent probe MitoSOX as per manufacturer’s instructions (Invitrogen). To measure total ROS, cells were incubated with the ROS-sensitive probe 5-(and-6)-chlorometyl-20,70-dichlorodihydro-fluorescein diacetate-acetoxymethyl ester ([…]; DCFDA-AM) as described by Riganti et al.. The results are expressed as nmol/mg mitochondrial or cellular protein, respectively.

[2] = Systemic toxicity and hematochemical parameters of treated PANC-1 tumor-bearing mice; conditions: PANC-1 tumor-bearing mice, 30 days treatment
Procedure: 2 × 10^5 PANC-1 or Mia-PaCa2 cells were inoculated subcutaneously in the right flank of 6-week old C57BL/6 female nude mice (Charles River Laboratories Italia, Calco), housed (5 per cage) under a 12 h light/dark cycle, with food and drinking water provided ad libitum. Tumor growth was measured daily by caliper, according to the equation (LxW^2)/2, where L = tumor length and W = tumor width. […] Tumor volumes and animal weights were monitored daily. Animals were euthanized at day 18 or 36 after randomization with zolazepam (0.2 ml/kg) and xylazine (16 mg/kg). […] Red blood cell (RBC) count, hemoglobin (Hb), white blood cell (WBC) count, platelet (PLT) count, lactate dehydrogenase (LDH), aspartate aminotransferase (AST), alanine aminotransferase (ALT), alkaline phosphatase (AP), creatinine and creatine phosphokinase (CPK) were measured in blood samples collected immediately after euthanasia, using commercially available kits from Beckman Coulter Inc (Beckman Coulter, Miami, FL, USA).
Blood was collected immediately after euthanasia and analyzed for red blood cells (RBC) count, hemoglobin (Hb), white blood cells (WBC) count, platelets (PLT) count, lactate dehydrogenase (LDH), aspartate aminotransferase (AST), alanine aminotransferase (ALT), alkaline phosphatase (AP), creatinine, creatine phosphokinase (CPK). Data are presented as means ± SD.

[3] = test system: ATG5, ATG7, ATG12, beclin 1, p62, LC3; assay: Western blotting of autophagy and sequestration markers; format: cell-based, human and murine; conditions: 50 µM, 2 h
Procedure: (§2) Cells were rinsed with ice-cold lysis buffer (50 mM, Tris, 10 mM EDTA, 1 % v/v Triton-X100), supplemented with protease inhibitor cocktail set III (80 µM aprotinin, 5 mM bestatin, 1.5 mM leupeptin, 1 mM pepstatin; Calbiochem, San Diego, CA, USA), 2 mM phenylmethylsulfonyl fluoride and 1 mM Na3VO4, then sonicated and centrifuged at 13,000 g for 10 min at 4 °C. 20 µg protein extracts were subjected to SDS-PAGE and probed with antibodies directed against ATG5, ATG7, ATG12, beclin, p62, LC3, GRP78, ATF6, IRE-1α and PERK (all from Abcam, Cambridge, UK), followed by incubation with a peroxidase-conjugated secondary antibody (Bio-Rad Laboratories). Next, the membranes were washed with Tris-buffered saline-Tween 0.1 % v/v solution, and proteins were detected by enhanced chemiluminescence (Bio-Rad Laboratories). To check for equal loading, the samples were probed with an anti-β-tubulin antibody (Santa Cruz Biotechnology Inc., Santa Cruz, CA, USA).

[4] = test system: GRP78, ATF6, IRE1 and PERK; assay: Western blotting of ER stress markers in pancreatic cancer cells; format: cell-based, human and murine; conditions: 50 µM, 2 h
Procedure: as §2

[5] = test system: mitochondrial depolarization; assay: Mitochondrial depolarization assay (JC-1); format: cell-based, human and murine; conditions: 50 µM, 2 h, JC1 staining
Procedure: Staining with JC-1 fluorescent probe (Biotium Inc., Freemont, CA, USA) was performed as detailed in Riganti et al.. The resulting fluorescence units were used to calculate the percentage of green-fluorescent (i.e., depolarized) mitochondria versus red-fluorescent (i.e., polarized) mitochondria.

sigma-2 receptors = target: T2, sigma-2 receptors (Rattus norvegicus, UniProt Q5U3Y7); assay: Sigma-2 radioligand binding assay ([3H]-DTG, rat liver membranes)
T2 construct: in rat liver membranes; from tissue; host or cells: rat liver membranes
T2 sequence (Q5U3Y7 whole entry): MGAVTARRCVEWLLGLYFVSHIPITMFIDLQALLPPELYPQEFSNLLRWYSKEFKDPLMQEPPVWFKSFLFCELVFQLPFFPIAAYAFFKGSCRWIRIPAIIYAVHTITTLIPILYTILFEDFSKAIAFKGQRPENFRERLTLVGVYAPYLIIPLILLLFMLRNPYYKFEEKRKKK
Procedure: Sigma-2 receptor binding was carried out according to Berardi et al.. […] Concentrations required to inhibit 50 % of radioligand-specific binding (IC50) were determined using six to nine different concentrations of the drug in two or three experiments with samples in duplicate. Scatchard parameters (Kd and Bmax) and apparent inhibition constant (Ki) values were determined by nonlinear curve fitting, using Prism version 5.0, GraphPad software.

caspase 9 = assay: Caspase 9 activity assay in pancreatic cancer cells; format: cell-based, human and murine; conditions: 2 h
Procedure: as §1

[6] = test system: GRP78, ATF6, IRE1 and PERK; assay: qRT-PCR of ER stress markers in pancreatic cancer cells; format: cell-based, human and murine; conditions: 50 µM, 2 h
Procedure: Total RNA was extracted using a phenol/chloroform method, after which 1 µg RNA was reverse-transcribed using an iScript Reverse Transcription Supermix kit according to the manufacturer’s instructions (Bio-Rad Laboratories). 25 ng cDNA was amplified using 10 µl of an IQ™ SYBR Green Supermix (Bio-Rad Laboratories). Primers were designed using qPrimer Depot software (http://primerdepot.nci.nih.gov/). qRT-PCR was carried out using an iQ^TM5 cycler (Bio-Rad Laboratories). The cycling conditions used were: 30 s at 95 °C, followed by 40 cycles of denaturation (15 s at 95 °C) and annealing/extension (30 s at 60 °C). The same cDNA preparations were used to quantify the expression of genes of interest and that of the housekeeping gene S14, which was used to normalize the gene expression levels. Relative quantitation of each sample was performed using Gene Expression Quantitation software (Bio-Rad Laboratories). The results were expressed in arbitrary units. For each gene, the expression level in untreated cells was arbitrarily set at “1”.

CN(C)C(=S)N/N=C1\C(=O)N(CCCCN2CCC3(CC2)OCc2ccccc23)c2ccccc21 [FA4, (Z)-2-(1-(4-(3 H-spiro[isobenzofuran-1,4’-piperidine]-1’-yl)butyl)-2-oxoindolin-3-ylidene)-N,N-dimethylhydrazinecarbothioamide]
IC50 (sigma-1 receptors; Flow Cytometry, IC50 ± SEM, Sigma-1, MiaPaCa2, MiaPaCa2 cells, displacement of LM1): 53.2 ± 5.6 nM
IC50 (sigma-1 receptors; Flow Cytometry, IC50 ± SEM, Sigma-1, PANC-1, PANC-1 cells, displacement of LM1): 51.3 ± 4.3 nM
IC50 (sigma-1 receptors; IC50 at sigma-1 receptor by flow cytometry (discussion), PANC-1 and MiaPaCa2 cells): ~50 nM
lower affinity for the sigma-1 receptor compared to the sigma-2 receptor (sigma-1 receptors; flow cytometry IC50 values): 5 fold
caspase 7 activation (caspase 7): activated by FA4 in all cell lines except MiaPaCa2
EC50 [1]: 880 to 3010 nM
mitochondrial ROS (mitochondrial ROS): increased mitochondrial ROS in all the cell lines tested, except MiaPaCa2
treatment-related deaths, weight loss, abnormalities in behavior [2]: No treatment-related deaths, weight loss or abnormalities in mouse behavior were observed
levels of autophagosome proteins, p62 and LC3 conversion [3]: reduced the levels of all the above-mentioned proteins as well as the LC-I/LC-II conversion in responsive cells, but not in MiaPaCa2 cells
protein expression of ER stress sensors and executers (Western blot) [4]: in all cell lines except MiaPaCa2, this thiosemicarbazone was able to increase the expression of ER stress sensors and executers
mitochondrial depolarization [5]: all FA4-treated cells had depolarized (i.e., damaged) mitochondria, except MiaPaCa2
Ki (sigma-2 receptors): 15.8 ± 3.6 nM
activation of caspase 9 and caspase 3 with mitoquinol (caspase 9; 50 µM FA4 plus 0.4 µM mitoquinol): did not find any activation of caspase 9 and caspase 3
caspase 9 activation (caspase 9; 50 µM): observed in all the cells in which FA4 increased mitochondrial ROS and depolarization
mRNA expression of ER stress markers GRP78, ATF6, IRE1, PERK [6]: increased upon treatment with FA4 in all the cells tested, except in MiaPaCa2 cells
